# Legend:
# Type in all cases: cell-based, mouse
# [1] = tested on: silenced Aprt allele in D3, D7, D3S1 cells; test: Aprt mRNA expression in cell lines with silenced Aprt (qRT-PCR); conditions: for Aprt expression after treatment / Aprt expression / mRNA levels after treatment: overnight 3 μM 5-aza-dC or 300 nM TSA, 24 hours recovery (FIG. 12); for Aprt expression / mRNA levels after treatment: D7 cell line; for increase of Aprt mRNA levels as compared to untreated cells: 300 nM TSA
# Description: FIG. 12 is a bar graph showing relative Aprt mRNA expression in parental cells with active Aprt expression (H22) and DAP-resistant cell lines with silenced Aprt expression (D7, D3, and D3S1) in untreated cells and cells treated with 3 μM 5-aza-dC or 300 nM TSA. Results are the average of triplicate reactions with error bars indicating the standard deviation.
# Total RNA was isolated from cell cultures with the RNeasy® Mini Kit (Qiagen, Valencia, Calif.) according to the manufacturer's instructions. Total RNA samples were converted to cDNA using Quantitect® Reverse Transcription Kit (Qiagen, Valencia, Calif.) with removal of genomic DNA contamination. 100 ng cDNA was used as input in subsequent quantitative-PCR analysis for either Aprt amplification across the exon 2-3 splice site with the sense primer qAprt-F 5′-CTCTTGGCCAGTCACCTGAAG-3′ (SEQ ID NO: 4), the antisense primer qAprt-R 5′-TCTAGACCTGCGATGTAGTCGATCT-3′ (SEQ ID NO: 5) and the TaqMan probe 5′-FAM-CAC GCA CAG CGG C-MGB-3′ (SEQ ID NO: 6) or Gapdh (Mouse TaqMan Endogenous Control, Applied Biosystems) with iQ Supermix (Bio-Rad) and a Bio-Rad iCycler.
# Cells were treated overnight (about 16 hours) with media containing 300 nM TSA (Wako USA, Richmond, Va.) to inhibit histone deacetylation, 3 μM 5-aza-dC (Sigma-Aldrich, St. Louis, Mo.) to inhibit DNA methylation, or the combination of 300 nM TSA and 3 μM 5-aza-dC. Cells were allowed to recover 24 hours in DMEM after drug treatment before harvesting for RNA purification.
# BRCA1-HPRT in BSH8 cells = test: Inhibition of hypoxia-induced silencing of BRCA1-HPRT (TG resistance frequency); conditions: hypoxia two weeks, TSA 24 hours prior to TG selection (FIG. 9)
# Description: FIG. 9 is a bar graph showing TG resistance frequency for BSH8 cells exposed to normoxia or hypoxia for two weeks and then selected under normoxic conditions with TG. An aliquot of the hypoxia exposed cells was treated with TSA for 24 hours (hypoxia+TSA) prior to TG selection.
# Two BRCA1-HPRT cell lines obtained with this approach (BSH2 and BSH8) were exposed to hypoxic conditions (growth in an atmosphere of about 95% nitrogen and 5% oxygen) for two weeks and then exposed to 2.5 μg/ml TG under hypoxic conditions for two additional weeks to select for TG resistant cells. […] Thus, the resistance phenotype became independent of hypoxia.
# (§1) To confirm that silencing (as opposed to mutation) was induced by hypoxia exposure, several BRCA1-HRPT TG resistant clones induced by hypoxia were expanded and tested to determine if they could yield revertant cells after exposure to TSA (300 nM) as presented in Example 3 for cells with silenced Ptet-HPRT constructs. […] Consistent with that result, HPRT mRNA was reduced in the TG resistant clones and restored in TSA-induced revertants.
# Ptet-HPRT in HPRT9 cells = test: Inhibition of Dox-induced HPRT silencing (TG resistant clones); conditions: 100 nM TSA or 300 nM 5-Aza-dC for the last 24 hours of 7 days 1 μM Dox; TG selection (FIG. 5)
# Description: FIG. 5 is a series of digital images of dishes of TG resistant HPRT9 cells after various treatments. HPRT9 cells with Ptet-HPRT were exposed to 1 μM Dox for 7 days (Dox) to induce HPRT silencing. Some cells were also exposed 100 nM TSA (Dox+TSA) or 300 nM 5-Aza-dC (Dox+AzaC) on day 7 of Dox treatment. Control (Untreated) cells were not exposed to Dox, TSA, or 5-Aza-dC. 1×10^5 cells were plated per dish in TG medium and the dishes were stained after 12 days. The dark circles depict clones of cells that survived TG selection (TG resistant cells).
# If so, silencing should be prevented by inhibiting histone deacetylation. To test this, experiments in which silencing is induced by exposure to Dox were repeated (see Example 2), but in this case the cells were exposed to TSA for the last 24 hours of Dox exposure.
# [2] = tested on: silenced HPRT allele in H3TG3 cells; test: HPRT reversion frequency of TG resistant cells with silenced Ptet-HPRT (HAz selection); conditions: 100 nM TSA and/or 300 nM 5-aza-dC for 24 hours, 24 hour recovery, HAz medium (FIG. 3)
# Description: Reversion frequencies were determined for a cell line with a silenced HPRT allele after no treatment (Untreated), treatment with 300 nM 5-aza-2′-deoxycytidine (AzaC) for 24 hours, treatment with 100 nM trichostatin A (TSA) for 24 hours, or a combination of 5-Aza-dC and TSA at the same concentrations for 24 hours. Revertant cells were selected with medium containing hypoxanthine and azaserine.
# TSA was therefore used as a probe to determine if histone deacetylation played a significant role in the silencing phenotype. […] For this experiment, 1×10^6 cells were plated in a T-75 flask and treated with 100 nM TSA for 24 hours. After an additional 24 hour recovery time, the cells were re-plated in 100 mm dishes (1×10^5 cells per dish) in HAz medium to select for cells that regained HPRT expression. […] For this experiment, the cells were treated identically to those used for the TSA experiment, except they were exposed to 300 nM 5-aza-dC instead.
# [3] = tested on: BRCA1-HPRT construct (human BRCA1 promoter); test: Reversion of hypoxia-induced TG resistant clones containing BRCA1-HPRT; conditions: for reversion / reactivation of hypoxia-induced BRCA1-HPRT TG resistant clones: TSA 300 nM (Table 3, FIG. 8), 5-Aza-dC concentration not given; for TSA-Induced Reversion Frequency: TSA 300 nM
# Description: FIG. 8 is a bar graph showing reactivation frequency of BSH8 TG resistant clones treated with 300 nM TSA for 16 hours or in the absence of TSA (untreated).
# as §1
# [4] = tested on: reactivated HPRT in H4-derived clones; test: Re-silencing frequency of reactivated Ptet-HPRT clones (TG selection); conditions: overnight 300 nM 5-aza-dC before TG selection (FIG. 15)
# Description: FIG. 15 is a bar graph showing inactivation frequency of H4-derived clones with silenced and reactivated HPRT expression after overnight treatment with vehicle (Untreated), 300 nM 5-aza-dC (Aza-dC) or 100 nM TSA (TSA) before selecting against HPRT activity with TG. Frequencies represent the fraction of cell colonies surviving after two weeks of TG selection.
# A DIF6 derived cell line expressing HPRT under the control of the Ptet system was established as described in Example 1. Gene silencing was induced following repression of HPRT expression in the presence of Dox and spontaneous reactivant cell lines that grew well in AzHx medium were isolated. Re-silencing frequency was measured in the presence of the DNA methylation inhibitor 5-aza-dC or the HDAC inhibitor TSA.
# BRCA1-HPRT [5] = test: TG resistance frequency of BRCA1-HPRT transfectants exposed to CoCl2; conditions: 50 μM or 100 μM CoCl2 for two weeks, then TG selection (FIG. 10B)
# Description: FIG. 10B is a bar graph showing TG resistance frequency for BRCA1-HPRT transfectants exposed to 50 μM or 100 μM CoCl2 for two weeks, followed by TG selection.
# (§2) BRCA1-HPRT and MLH1-HPRT cell lines as described in Example 5 were exposed to CoCl2 for two weeks, followed by selection of TG resistant clones. […] Expression from the MLH1 promoter was also repressed by exposure to CoCl2.
# BRCA1-HPRT [6] = test: HPRT mRNA in BRCA1-HPRT transfectants exposed to CoCl2; conditions: 50 μM or 100 μM CoCl2 for two weeks (FIG. 10A)
# Description: FIG. 10A is a bar graph showing HPRT mRNA levels (normalized to GAPDH) in BRCA1-HPRT transfectants exposed to 50 μM or 100 μM CoCl2 for two weeks.
# as §2
# [7] = tested on: MLH1 promoter (MLH1-HPRT); test: Expression from the MLH1 promoter in MLH1-HPRT cells exposed to CoCl2; conditions: CoCl2 exposure
# Text: as §2
# Ptet-HPRT [8] = test: Induction of silencing via repression of Ptet-HPRT by Dox (TG resistance frequency); conditions: 1 μM Dox 7 days, then TG and puromycin selection without Dox
# Description: FIG. 2 is a bar graph showing silencing frequency as a function of time of Dox exposure. HPRT 3 cells with Ptet-HPRT were exposed to 1 μM Dox for the times indicated before being released from Dox and selected with 6-thioguanine (TG). TG resistance frequencies are plotted. No TG resistant clones were identified after one or two weeks of growth in medium without Dox. The HPRT 3 cell line was created by inserting the Ptet-HPRT construct and the tet-responsive transcription activator construct into the genome of a mouse cell line termed DIF6.
# To determine if gene repression could induce silencing, three cell lines expressing HPRT under control of the Ptet promoter (Ptet-HPRT) were exposed to Dox for 7 days and then selected with TG in the absence of Dox. These cells lines were chosen because 1) each gave few or no spontaneous TG resistant clones and 2) Ptet-HPRT was integrated near the bacterial puromycin (pur) selectable gene, which allowed puromycin selection to be used to prevent deletion of Ptet-HPRT. […] For this experiment, 1×10^6 cells were exposed to 1 μM Dox for 7 days, the Dox was removed from the medium, the cells re-plated in 100 mm dishes at a density of 1×10^5 cells per dish and exposed to TG (5 μg/ml) and puromycin (1.5 μg/ml).
# Ptet-HPRT [9] = test: HPRT mRNA by qRT-PCR in Ptet-HPRT cells exposed to Dox; conditions: after removal of Dox from the medium
# Text: The cell lines described in Example 1 were used to determine if gene silencing can be induced by transient reduction of gene expression. […] In other words, Dox can reduce but not eliminate gene expression. HPRT mRNA was restored to the original levels observed in the absence of Dox within 2 days after Dox was removed from the medium.
# [10] = tested on: silenced HPRT allele in H3TG3 cells; test: Reactivation of silenced HPRT, mRNA by qRT-PCR; conditions: 5 or 15 μM SFN for 24 hours, RNA 24 hours after exposure; compared with 300 nM 5-aza-dC (FIG. 4)
# Description: Relative levels of HPRT mRNA were determined in H3TG3 cells exposed to 300 nM 5-Aza-dC, 5 μM SFN, or 15 μM SFN for 24 hours. RNA was collected after an additional 24 hours and quantitative real time PCR (qRT-PCR) was used to determine mRNA levels, which were set to 1.0 for untreated cells.
# RNA levels instead of reactivation frequencies were used as the endpoint for this experiment.
# Ptet-HPRT in HPRT3 cells = test: Relative HPRT expression in Dox exposed cells treated with TSA (qRT-PCR); conditions: 1 μM Dox 7 days, TSA on day 7 (FIG. 6)
# Description: FIG. 6 is a bar graph showing relative HPRT expression after Dox exposed HPRT3 cells were treated with TSA. The HPRT3 cells expressing Ptet-HPRT were treated with 1 μM Dox for 6 days and on day 7 some cells were exposed to both Dox and TSA (at concentrations shown). RNA was collected at the end of the 7th day and assayed for HPRT levels with qRT-PCR.
smiles,measurement,setting,value
"Nc1ncn([C@H]2C[C@H](O)[C@@H](CO)O2)c(=O)n1 [5-aza-dC, 5-aza-2′-deoxycytidine]",Aprt expression after treatment,[1]; D3S1 cell line,reactivated expression
same,Aprt expression after treatment,[1]; D3 cell line,reactivated expression
same,Aprt expression / mRNA levels after treatment,[1],did not alter expression
same,hypoxia-induced silencing of the BRCA1 promoter,BRCA1-HPRT in BSH8 cells,did not inhibit the induction of silencing
same,induction of cells with silenced HPRT alleles,Ptet-HPRT in HPRT9 cells,did not inhibit
same,frequency of revertant cells,[2],induced revertant cells
same,reversion / reactivation of hypoxia-induced BRCA1-HPRT TG resistant clones,[3],did not reactivate the silenced clones
same,re-silencing frequency,[4],essentially unchanged
"[Cl][Co][Cl] [CoCl2, cobalt chloride]",TG-resistant clones,BRCA1-HPRT [5],only arose in BRCA1-HPRT cells exposed to 100 μM CoCl2
same,BRCA1-HPRT expression,BRCA1-HPRT [6],repressed in a dose-dependent manner
same,Expression from the MLH1 promoter,[7],repressed
"C[C@H]1c2cccc(O)c2C(=O)C2=C(O)[C@]3(O)C(=O)C(C(N)=O)=C(O)[C@@H](N(C)C)[C@@H]3[C@@H](O)[C@@H]21 [Dox, doxycycline]",Silencing Frequency,Ptet-HPRT [8]; HPRT 1 cell line,9.4 × 10^−3
same,Silencing Frequency,Ptet-HPRT [8]; HPRT 3 cell line,2.1 × 10^−4
same,Silencing Frequency,Ptet-HPRT [8]; HPRT 4 cell line,1.6 × 10^−4
same,time to restoration of HPRT mRNA to original levels after Dox was removed,Ptet-HPRT [9],≤ 2 days
"C[S+]([O-])CCCCN=C=S (centres unmarked) [SFN, sulforaphane]",reactivation of silenced HPRT allele (RNA levels),[10],"reactivate the silenced HPRT allele in a dose dependent manner, and at levels greater than that for exposure with 5-aza-dC"
"CC(/C=C/C(=O)NO)=C\[C@@H](C)C(=O)c1ccc(N(C)C)cc1 [TSA, trichostatin A]",increase of Aprt mRNA levels as compared to untreated cells,[1]; D3S1 cell line,8 fold
same,increase of Aprt mRNA levels as compared to untreated cells,[1]; D3 cell line,1.5 fold
same,Aprt expression / mRNA levels after treatment,[1],no affect
same,hypoxia-induced silencing of the BRCA1 promoter,BRCA1-HPRT in BSH8 cells,inhibited hypoxia-induced silencing
same,induction of cells with silenced HPRT alleles,Ptet-HPRT in HPRT9 cells,significantly inhibited
same,frequency of revertant cells,[2],increased
same,HPRT expression in the presence of Dox,Ptet-HPRT in HPRT3 cells,restored a level of HPRT expression
same,TSA-Induced Reversion Frequency,[3]; TG cell line BSH8TG22,6.9 × 10^−4
same,TSA-Induced Reversion Frequency,[3]; TG cell line BSH8TG23,1.0 × 10^−4
same,reversion / reactivation of hypoxia-induced BRCA1-HPRT TG resistant clones,[3],induced revertant cells

# — patent US9034645B2, “Methods of identifying inhibitors of gene silencing in mammalian cells” (Oregon Health & Science University, priority 2008, dated 2015)
